Data published in patent US20250195521A1 (Revolution Medicines, Inc., priority 2020, published 2025).

Key:
[1] = target: KRAS G12C (Homo sapiens (Human), UniProt P01116+P62937, G12C); assay: Ras-Raf disruption/FRET/MOA assay (BRAF RBD, Cyclophilin A); assay type: biochemical; conditions: read-out: KRAS G12C FRET IC50
In short: (§1)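 First, 25 μM Cyclophilin A, 12.5 nM His6-Ras-GMPPNP and 50 nM GST-BRAF RBD are mixed with diluted compound at pH 7.3. Next, 3 h at 25° C. Then 10 nM anti-His Eu-W1024 plus 50 nM anti-GST allophycocyanin for 1.5 h before TR-FRET reading.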

[2] = target: KRAS WT (Homo sapiens (Human), UniProt P01116+P62937); assay: as above; assay type: biochemical; conditions: read-out: KRAS WT FRET data IC50
In short: as §1

[3] = target: KRAS G12V (Homo sapiens (Human), UniProt P01116+P62937, G12V); assay: as above; assay type: biochemical; conditions: read-out: KRAS G12V FRET IC50
In short: as §1

[4] = target: KRAS G12D (Homo sapiens (Human), UniProt P01116+P62937, G12D); assay: as above; assay type: biochemical; conditions: read-out: KRAS G12D FRET IC50
In short: as §1

[5] = target: KRAS G13D (Homo sapiens (Human), UniProt P01116+P62937, G13D); assay: as above; assay type: biochemical; conditions: read-out: KRAS G13D FRET data IC50
In short: as §1

[6] = target: KRAS G12S (Homo sapiens (Human), UniProt P01116+P62937, G12S); assay: as above; assay type: biochemical; conditions: read-out: KRAS G12S FRET IC50
In short: as §1

[7] = target: NRAS Q61K (Homo sapiens (Human), UniProt P01111+P62937, Q61K); assay: as above; assay type: biochemical
In short: (§2)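 Measured: compound-facilitated Cyclophilin A:Ras complex blocking RAF RBD binding. Conditions: 12.5 nM Ras-GMPPNP, 50 nM BRAF RBD, 25 μM CypA, 3 h plus 1.5 h detection. Output: IC50 from TR-FRET ratio.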

[8] = target: NRAS Q61R (Homo sapiens (Human), UniProt P01111+P62937, Q61R); assay: as above; assay type: biochemical
In short: as §2

[9] = target: KRAS Q61H (Homo sapiens (Human), UniProt P01116+P62937, Q61H); assay: as above; assay type: biochemical
In short: as §1

[10] = target: KRAS G13C (Homo sapiens (Human), UniProt P01116+P62937, G13C); assay: as above; assay type: biochemical; conditions: read-out: KRAS G13C FRET IC50
In short: as §1

[11] = target: NRAS G12C (Homo sapiens (Human), UniProt P01111+P62937, G12C); assay: as above; assay type: biochemical; conditions: read-out: NRAS G12C FRET data IC50
In short: as §2

[12] = target: NRAS WT (Homo sapiens (Human), UniProt P01111+P62937); assay: as above; assay type: biochemical
In short: as §2

[13] = test system: NCI-H358 (K-Ras G12C); assay: CellTiter-Glo cell viability assay, NCI-H358; assay type: cell-based, human; conditions: Homo sapiens, NCI-H358, 120 h, read-out: H358 Cell Viability assay data (K-Ras G12C, IC50, uM), 5-day treatment
In short: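 After direct compound addition, plates were incubated to day 5 and equilibrated at room temperature for about 30 minutes before CellTiter-Glo reading. Values derive from luminescence relative to the DMSO mean, fitted with a four-parameter logistic model.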

Sequence of KRAS G13C (P01116 other isoform, or with tags, fused parts or gaps G13C): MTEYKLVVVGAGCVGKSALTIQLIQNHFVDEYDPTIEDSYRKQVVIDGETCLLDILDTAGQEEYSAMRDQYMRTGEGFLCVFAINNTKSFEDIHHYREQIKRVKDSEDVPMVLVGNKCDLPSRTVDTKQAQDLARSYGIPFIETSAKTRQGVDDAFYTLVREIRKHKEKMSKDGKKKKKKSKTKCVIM
Sequence of KRAS G13C (P62937 whole entry): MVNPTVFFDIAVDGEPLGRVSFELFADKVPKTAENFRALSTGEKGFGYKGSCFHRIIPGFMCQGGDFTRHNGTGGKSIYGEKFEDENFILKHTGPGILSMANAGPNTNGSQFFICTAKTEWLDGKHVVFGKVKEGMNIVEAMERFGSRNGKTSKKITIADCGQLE
Sequence of NRAS Q61R (P01111 whole entry Q61R): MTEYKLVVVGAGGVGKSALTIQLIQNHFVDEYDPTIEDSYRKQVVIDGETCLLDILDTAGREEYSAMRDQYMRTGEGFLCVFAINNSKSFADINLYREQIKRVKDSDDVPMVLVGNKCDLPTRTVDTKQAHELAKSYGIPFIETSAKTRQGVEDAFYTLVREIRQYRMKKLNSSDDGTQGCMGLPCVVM
Sequence of NRAS Q61R (P62937 whole entry): as the sequence (P62937 whole entry) above
Sequence of NRAS G12C (P01111 whole entry G12C): as the sequence (P01111 whole entry Q61R) above, with G12C, R61Q counted along it
Sequence of NRAS G12C (P62937 whole entry): as the sequence (P62937 whole entry) above
Sequence of KRAS G12C (P01116-2 other isoform, or with tags, fused parts or gaps G12C): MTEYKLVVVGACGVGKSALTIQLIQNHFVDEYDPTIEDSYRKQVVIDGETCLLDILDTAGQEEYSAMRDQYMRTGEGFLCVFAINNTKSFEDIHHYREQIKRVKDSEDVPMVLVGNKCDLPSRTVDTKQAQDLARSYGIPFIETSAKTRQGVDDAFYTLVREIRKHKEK
Sequence of KRAS G12C (P62937 whole entry): as the sequence (P62937 whole entry) above
Sequence of KRAS Q61H (P01116 other isoform, or with tags, fused parts or gaps Q61H): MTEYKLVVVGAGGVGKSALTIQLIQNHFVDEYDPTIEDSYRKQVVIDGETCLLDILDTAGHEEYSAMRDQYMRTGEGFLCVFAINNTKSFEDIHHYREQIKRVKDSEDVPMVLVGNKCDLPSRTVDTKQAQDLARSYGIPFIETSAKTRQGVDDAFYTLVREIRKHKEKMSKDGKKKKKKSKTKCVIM
Sequence of KRAS Q61H (P62937 whole entry): as the sequence (P62937 whole entry) above
Sequence of KRAS G13D (P01116 other isoform, or with tags, fused parts or gaps G13D): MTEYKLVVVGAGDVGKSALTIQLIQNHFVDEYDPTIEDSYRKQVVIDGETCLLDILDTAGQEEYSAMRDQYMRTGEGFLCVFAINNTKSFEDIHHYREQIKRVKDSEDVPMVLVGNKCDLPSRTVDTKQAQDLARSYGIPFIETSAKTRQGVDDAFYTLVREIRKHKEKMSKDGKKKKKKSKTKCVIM
Sequence of KRAS G13D (P62937 whole entry): as the sequence (P62937 whole entry) above
Sequence of KRAS G12S (P01116 other isoform, or with tags, fused parts or gaps G12S): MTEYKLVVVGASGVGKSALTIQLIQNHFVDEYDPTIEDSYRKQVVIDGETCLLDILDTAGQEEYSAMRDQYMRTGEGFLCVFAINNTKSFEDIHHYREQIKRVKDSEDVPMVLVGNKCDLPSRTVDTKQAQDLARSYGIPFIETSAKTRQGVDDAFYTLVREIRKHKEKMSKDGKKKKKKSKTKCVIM
Sequence of KRAS G12S (P62937 whole entry): as the sequence (P62937 whole entry) above
Sequence of KRAS WT (P01116 other isoform, or with tags, fused parts or gaps): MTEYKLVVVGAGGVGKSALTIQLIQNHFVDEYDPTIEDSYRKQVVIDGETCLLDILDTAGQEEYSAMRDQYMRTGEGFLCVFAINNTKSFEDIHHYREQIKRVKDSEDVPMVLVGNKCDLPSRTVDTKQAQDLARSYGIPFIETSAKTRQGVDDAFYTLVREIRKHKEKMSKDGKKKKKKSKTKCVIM
Sequence of KRAS WT (P62937 whole entry): as the sequence (P62937 whole entry) above
Sequence of KRAS G12V (P01116 other isoform, or with tags, fused parts or gaps G12V): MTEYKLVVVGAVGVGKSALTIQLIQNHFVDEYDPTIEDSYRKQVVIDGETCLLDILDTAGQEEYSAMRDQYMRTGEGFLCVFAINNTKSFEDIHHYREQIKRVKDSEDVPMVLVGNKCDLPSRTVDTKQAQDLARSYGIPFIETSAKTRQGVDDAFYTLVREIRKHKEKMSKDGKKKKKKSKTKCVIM
Sequence of KRAS G12V (P62937 whole entry): as the sequence (P62937 whole entry) above
Sequence of NRAS WT (P01111 whole entry): as the sequence (P01111 whole entry Q61R) above, with R61Q counted along it
Sequence of NRAS WT (P62937 whole entry): as the sequence (P62937 whole entry) above
Sequence of NRAS Q61K (P01111 whole entry Q61K): as the sequence (P01111 whole entry Q61R) above, with R61K counted along it
Sequence of NRAS Q61K (P62937 whole entry): as the sequence (P62937 whole entry) above
Sequence of KRAS G12D (P01116 other isoform, or with tags, fused parts or gaps G12D): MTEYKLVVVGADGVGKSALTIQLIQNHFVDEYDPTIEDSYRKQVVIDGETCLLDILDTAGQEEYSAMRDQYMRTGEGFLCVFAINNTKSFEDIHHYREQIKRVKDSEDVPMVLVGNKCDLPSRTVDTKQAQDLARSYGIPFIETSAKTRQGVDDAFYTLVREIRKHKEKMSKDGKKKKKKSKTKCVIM
Sequence of KRAS G12D (P62937 whole entry): as the sequence (P62937 whole entry) above

Row | Compound | IC50 [1] [nM] | IC50 [2] [nM] | IC50 [3] [nM] | IC50 [4] [nM] | IC50 [5] [nM] | IC50 [6] [nM] | IC50 [7] [nM] | IC50 [8] [nM] | IC50 [9] [nM] | IC50 [10] [nM] | IC50 [11] [nM] | IC50 [12] [nM] | IC50 [13] [µM]
1 | CCn1c(-c2cccnc2[C@H](C)OC)c2c3cc(ccc31)-c1csc(n1)C[C@H](NC(=O)[C@H](C(C)C)N1C[C@@H](c3ccccc3)CC1=O)C(=O)N1CCC[C@H](N1)C(=O)OCC(C)(C)C2 (single isomer, unassigned) [Compound A544] | 100 to 1000 | 1000 to 10000 | 1000 to 10000 | 1000 to 10000 | 1000 to 10000 | 1000 to 10000 | 100 to 1000 | 1000 to 10000 | 100 to 1000 | 100 to 1000 | 100 to 1000 | 1000 to 10000 | 
2 | CCn1c(-c2cccnc2[C@H](C)OC)c2c3cc(ccc31)-c1cccc(c1)C[C@H](NC(=O)[C@H](C(C)C)N(C)C(C)=O)C(=O)N1CCC[C@H](N1)C(=O)OCC(C)(C)C2 [Compound A61] | 1000 to 10000 | 1000 to 10000 | 1000 to 10000 | > 10000 | 1000 to 10000 | 1000 to 10000 | 1000 to 10000 | 1000 to 10000 | 100 to 1000 | 1000 to 10000 | 1000 to 10000 | 1000 to 10000 | 
3 | CCn1c(-c2cccnc2[C@H](C)OC)c2c3cc(ccc31)-c1csc(n1)C[C@H](NC(=O)[C@H](C(C)C)N(C)C(=O)[C@H]1CCN(S(C)(=O)=O)C1)C(=O)N1CCC[C@H](N1)C(=O)OCC(C)(C)C2 [Compound A237] | 1000 to 10000 | 1000 to 10000 | 1000 to 10000 | > 10000 | > 10000 | 1000 to 10000 | 1000 to 10000 | 1000 to 10000 |  | 1000 to 10000 | 1000 to 10000 | 1000 to 10000 | < 0.01
4 | CCn1c(-c2cccnc2[C@H](C)OC)c2c3cc(ccc31)-c1csc(n1)C[C@H](NC(=O)C1(F)CCC1)C(=O)N1CCC[C@H](N1)C(=O)OCC(C)(C)C2 [Compound A361] | 100 to 1000 | 100 to 1000 | 100 to 1000 | 1000 to 10000 | 100 to 1000 | 100 to 1000 | 100 to 1000 | 100 to 1000 | 100 to 1000 | 100 to 1000 | 100 to 1000 | 100 to 1000 | 
5 | CCn1c(-c2cccnc2[C@H](C)OC)c2c3cc(ccc31)-c1csc(n1)C[C@H](NC(=O)C1(F)CC1)C(=O)N1CCC[C@H](N1)C(=O)OCC(C)(C)C2 [Compound A362] | 100 to 1000 | 100 to 1000 | 100 to 1000 | 1000 to 10000 | 1000 to 10000 | 100 to 1000 | 100 to 1000 | 1000 to 10000 | 100 to 1000 | 100 to 1000 | 100 to 1000 | 100 to 1000 | 
6 | CCn1c(-c2cc(N3CCN(C)CC3)cnc2[C@H](C)OC)c2c3cc(ccc31)-c1csc(n1)C[C@H](NC(=O)[C@H](C(C)C)N(C)C(=O)[C@H]1CCCS1(=O)=O)C(=O)N1CCC[C@H](N1)C(=O)OCC(C)(C)C2 [Compound A439] | 100 to 1000 | 100 to 1000 | 1000 to 10000 | 1000 to 10000 | 1000 to 10000 | 1000 to 10000 | 100 to 1000 | 100 to 1000 | 100 to 1000 | 100 to 1000 | 100 to 1000 | 100 to 1000 | 
7 | CCn1c(-c2cccnc2[C@H](C)OC)c2c3cc(ccc31)-c1csc(n1)C[C@H](NC(=O)[C@H](C(C)C)N(C)C(=O)N1CCC[C@@H]1CN(C)C)C(=O)N1CCC[C@H](N1)C(=O)OCC(C)(C)C2 [Compound A518] | 100 to 1000 | 100 to 1000 | 1000 to 10000 | 100 to 1000 | 100 to 1000 | 100 to 1000 | 1000 to 10000 | 1000 to 10000 | 100 to 1000 | 100 to 1000 | 100 to 1000 | 100 to 1000 | 
8 | CCn1c(-c2cccnc2[C@H](C)OC)c2c3cc(ccc31)-c1csc(n1)C[C@H](NC(=O)[C@H](C(C)C)N(CCc1ccncc1)C1CC1)C(=O)N1CCC[C@H](N1)C(=O)OCC(C)(C)C2 [Compound A556] | 100 to 1000 | 100 to 1000 | 1000 to 10000 | 1000 to 10000 | 1000 to 10000 | 100 to 1000 | 100 to 1000 | 100 to 1000 | 100 to 1000 | 100 to 1000 | 100 to 1000 | 100 to 1000 | 
9 | CCn1c(-c2cccnc2[C@H](C)OC)c2c3cc(ccc31)-c1csc(n1)C[C@H](NC(=O)[C@H](C(C)C)N(C)C(=O)N1CC[C@@H](F)[C@H](N)C1)C(=O)N1CCC[C@H](N1)C(=O)OCC(C)(C)C2 [Compound A559] | 100 to 1000 | 100 to 1000 | 100 to 1000 | 100 to 1000 | 100 to 1000 | 100 to 1000 | 100 to 1000 | 100 to 1000 | 10 to 100 | 100 to 1000 | 10 to 100 | 100 to 1000 | 
10 | CCn1c(-c2cccnc2[C@H](C)OC)c2c3cc(ccc31)-c1csc(n1)C[C@H](NC(=O)[C@H](C(C)C)N(C)C(=O)[C@@H]1OCC[C@@H]1c1ccccc1)C(=O)N1CCC[C@H](N1)C(=O)OCC(C)(C)C2 [Compound A585] | 100 to 1000 | 100 to 1000 | 100 to 1000 | 1000 to 10000 | 1000 to 10000 | 100 to 1000 | 100 to 1000 | 100 to 1000 | 100 to 1000 | 100 to 1000 | 100 to 1000 | 100 to 1000 | 
11 | CCn1c(-c2cccnc2[C@H](C)OC)c2c3cc(ccc31)-c1cccc(c1)C[C@H](NC(=O)[C@H](C(C)C)N(C)C(=O)[C@@H]1OCC[C@@H]1c1ccccc1)C(=O)N1CCC[C@H](N1)C(=O)OCC(C)(C)C2 [Compound A586] | 10 to 100 | 100 to 1000 | 100 to 1000 | 100 to 1000 | 100 to 1000 | 100 to 1000 | 100 to 1000 | 100 to 1000 | 100 to 1000 | 100 to 1000 | 100 to 1000 | 100 to 1000 | 
